Where a SMILES comes first, the peptide text is derived from it.

For `Clc1cccc(Oc2c(Cl)cc(Cl)cc2Cl)c1`, the logP was 6.05.
The figure for `CC(=O)OCC1OC(n2cc(F)c(=O)[nH]c2=O)C(OC(C)=O)C1OC(C)=O` (stereo unspecified) is -0.25; for `[O-][n+]1ccc(-c2ccccc2)cc1` it is 0.93; for `CNC(=O)Nc1ccc(C(=O)O)cc1` it is 1.1.
The figure for `CC(C)CC(N)C(=O)NC(CC(C)C)C(=O)NCC(=O)NC(Cc1ccccc1)C(=O)O` (stereo unspecified) (H-LLGF-OH; configuration not given here) is -0.42; for `OCCN1CCN(CCn2nc3ccccc3n2)CC1` it is 0.43.
In the case of `CCCNC(=O)CNC(=O)C=[N+]=[N-]` it was -0.24.
Molecule `COc1ccc(N2CC(N3CCCCC3)=NC2=O)cc1` yielded a logP of 1.5.
The figure for `CCC(C)C(N)C(=O)NC(C)C(=O)NC(Cc1ccc(O)cc1)C(=O)NC(Cc1c[nH]c2ccccc12)C(=O)NCC(=O)O` (stereo unspecified) (H-IAYWG-OH; configuration not given here) is -1.47; for `Cc1ccc(OCC2CN=C(N)O2)c(C)c1` (stereo unspecified) it is 2.23.
In the case of `COC(=O)C(C)NP(=O)(OCC1C=CC(n2cc(C)c(=O)[nH]c2=O)O1)Oc1ccc(C)cc1` (stereo unspecified) it was 1.19; in that of `O=C1N=C(N2CCOCC2)CN1Cc1ccccc1Cl`, 1.
In the case of `CCC(C)C(NC(=O)C(N)CC(C)C)C(=O)NC(C(=O)NCC(=O)NC(C)C(=O)O)C(C)CC` (stereo unspecified) (H-LIIGA-OH; configuration not given here) it was -1.65; in that of `CNc1nc(NC)nc(NC(C)C)n1`, 1.87.
The molecule `O=c1nc(N=CN2CCCCC2)ccn1C1CC(O)C(CO)O1` (stereo unspecified) returned a logP of -0.51.
In the case of `COC(=O)C(C)NP(=O)(OCC1C=CC(n2cc(C)c(=O)[nH]c2=O)O1)Oc1ccc(Cl)c(Cl)c1` (stereo unspecified) it was 2.15.
In the case of `CC1(C)CCC(C(F)(F)F)=[N+]1[O-]` it was 0.2.
The figure for `Cn1c([N+](=O)[O-])cnc1C=NNC(N)=S` is 0.65.
In the case of `C=CCc1c(OC)cc(Cc2cnc(N)nc2N)cc1OCC`, the logP amounted to 2.66.
`CCCCCCNC(=O)N1C(=O)N(C)CC1O` (stereo unspecified) registered a logP of 2.39.
In the case of `CCC(C)NCc1cccc(S(=O)(=O)c2csc(S(N)(=O)=O)c2)c1` (stereo unspecified) it was 2.13.
In turn, `CCCC(=NOCC)C1=C(O)CC2(CC(C)CC(C)C2)OC1=O` (stereo unspecified) showed a logP of 4.47.
The figure for `CC(=NNC(=O)c1ccncc1)c1cnccn1` is 1.2; for `Cc1cc2cc3c(C)cc(=O)oc3cc2o1` it is 2.82; for `O=C(O)CCC(=O)OC1Cc2c(O)cc(O)cc2OC1c1ccc(O)c(O)c1` (stereo unspecified) it is 1.41.
The figure for `Cc1c(O)c(=O)ccn1CCCOC(=O)c1ccc(N(C)C)cc1` is 1.66.
As to `O=c1[nH]c2cc(Cl)c(Cl)c([N+](=O)[O-])c2[nH]c1=O`, the logP amounted to 0.21.
In the case of `CCOC(=O)C1=C(C)NC(C)=C(C(=O)OC)C1c1ccccc1` (stereo unspecified) it was 4.14.
The figure for `c1ccc2c(c1)OCC(CCc1ncc[nH]1)O2` (stereo unspecified) is 1.99; for `COC(=O)C1=C(C)NC(C)=C(P2(=O)OCCCO2)C1c1ccccc1[N+](=O)[O-]` (stereo unspecified) it is 1.3; for `CC(C)C1(C)N=C(c2ncc(CO)cc2C(=O)O)NC1=O` (stereo unspecified) it is -0.21.
`CCN(CC)CC(=O)Nc1ccc(N)cc1` had a logP of 1.09.
In the case of `CC(C)c1cccc(O)c(=O)c1` it was 1.82; in that of `O=C1CC=C2C3CC4N(CCC45c4ccccc4N1C25)C/C3=C\CO` (stereo unspecified), 1.37.
`OCC1OC(n2cnc3c(NCc4ccco4)ncnc32)C(O)C1O` (stereo unspecified): the logP is 0.52.
In the case of `Clc1ccc(-c2cnn(-c3ccccn3)c2)cc1` it was 4.3; in that of `CC(=O)c1c(C)nc2c3c(c(C(=O)N(C)C)cn12)CCC(c1ccccc1)O3` (stereo unspecified), 2.75; in that of `COc1ccc(-c2cn3cc(N)cnc3n2)c(OC)c1`, 1.68.
For the molecule `CC(C)CC(N)C(=O)NC(Cc1ccccc1)C(=O)O` (stereo not drawn) (H-Leu-Phe-OH; configuration not given here), the logP is -1.15.
In the case of `NC1CC(CO)N(c2cc3c(cc2F)c(=O)c(C(=O)O)cn3-c2ccc(F)cc2F)C1` (stereo unspecified) it was -0.98.
As to `COCCNc1[nH]cnc2ncnc1-2`, the logP was found to be 0.42.
`Nc1nc(N)c2c(N3CCOCC3)cccc2n1`: the log partition coefficient (logP) turned out to be 1.11.
In the case of `OCCN1CCN(CCCOn2nnc3ccccc32)CC1` it was 0.43; in that of `Nc1nnnn1-c1ccc(Cl)cc1`, 1.41.
For the molecule `CCc1c(O)c(=O)ccn1CCCCO`, the logP is -0.28.
In the case of `NC(N)=NCCCNC(=O)[C@@H]1CCCCN1C(=O)[C@@H](CC1CCCCC1)NCC(=O)O` it was -0.1; in that of `O=c1cc(CBr)oc(Br)c1O`, 1.27.
In turn, `OCCCCCNc1ncnc2c1ncn2C1OC(CO)C(O)C1O` (stereo unspecified) returned a logP of -0.24.
`CNC=C1c2cccc(O)c2C(=O)c2c(O)cccc21` had a logP of 3.55.
Regarding `Cc1nc2c3c(c(C(=O)N4CCCC4)cn2c1C)CCC(c1ccccc1)O3` (stereo unspecified), the logP was determined as 3.6.
The figure for `O=C1C=C(N2CCCC2)CN1c1ccc(Cl)cc1` is 2.6.
`CCN(C(C)=O)c1cccc(-c2ccnc3c(C#N)cnn23)c1` showed a logP of 1.23.
Molecule `O=C(O)c1cc(O)c2ccc(Cl)cc2n1` returned a logP of 1.05.
In the case of `CNC(C)Cc1ccc(N)cc1` (stereo unspecified) it was 0.81; in that of `Nc1nc(N)nc(-c2ccc(SC(F)(F)F)cc2)n1`, 3.2.
In the case of `CCOP(=O)(OCC)C(C)(C)[N+]([O-])=Cc1ccc(Cl)cc1` it was 2.29; in that of `Cc1cc(=O)c(O)c(CNC(=O)C(C)C)n1C`, -0.35.
Molecule `COC(=O)c1c(Oc2nc(OC)cc(OC)n2)cccc1C(C)=NOCCCl` showed a logP of 3.23.
In the case of `CC(C)=CC1C(C(=O)OCc2cccc(C(=O)c3ccccc3)c2)C1(C)C` (stereo unspecified) it was 6.54; in that of `Nc1ccc2cc3ccccc3nc2c1CO`, 1.77.
In the case of `CCCCCNCc1ccc(C)cc1`, the logP was determined as 4.26.
The figure for `CC(=O)c1ccc(Br)cc1O` is 3.15; for `NC1=NCC(CN2CCOCC2)O1` (stereo unspecified) it is -0.22; for `OCCNc1ncnc2c1ncn2C1OC(CO)C(O)C1O` (stereo unspecified) it is -1.13.
In the case of `CCN(CC)CCSC(=NO)c1nc(Cc2ccccc2)no1` it was 2.55; in that of `Cn1ccnc1CC1COc2ccccc2O1` (stereo unspecified), 1.93.
The figure for `C=CC(=O)OCCCCCC` is 3.33.
For `Cc1nc2c3c(c(C(=O)N(C)C)cn2c1Br)CCC(c1ccccc1)O3` (stereo unspecified), the logP came out at 3.4.
In the case of `O=C(O)C(c1ccc(-c2ccccc2)cc1)C(O)c1ccccc1` (stereo unspecified) it was 3.6; in that of `CCCCCCC(Nc1ccc([N+](=O)[O-])cc1[N+](=O)[O-])C(=O)O` (stereo unspecified), 4.2.
In the case of `CC(C)C(N)C(=O)NCC(=O)NC(Cc1ccccc1)C(=O)NC(C(=O)NC(Cc1ccccc1)C(=O)O)C(C)C` (stereo unspecified) (H-VGFVF-OH; configuration not given here) it was -0.5.
The figure for `Clc1cc(Oc2ccccc2)c(Cl)c(Cl)c1Cl` is 6.31; for `O=C1Oc2ccccc2CN1CCO[N+](=O)[O-]` it is 1.82.
As for `CC1=CCC(C)(C)C=CCC2(C)OC2CC1` (stereo unspecified), the logP stood at 4.45.
In the case of `NC(Cc1ccccc1)C(=O)NC(Cc1ccc(O)cc1)C(=O)O` (stereo not drawn) (H-Phe-Tyr-OH; configuration not given here) it was -1.68; in that of `CCC(C)C(NC(=O)C(C)N)C(=O)O` (stereo unspecified), -2.6.

The values are drawn from the OPERA property sets (Mansouri et al. 2018).
